Reference: patent US12521415B2, “Accelerating repair of mucosal injury using gold(III) compounds” (University of Kentucky Research Foundation, priority 2020, dated 2026)
Entries after “also recorded” stand apart in the source; their conditions may differ.

Legend:
[1] = test system: breast cancer (MDA-MB-231); experiment: Mitochondrial uptake of AuPhos by gold content (graphite furnace atomic absorption spectroscopy) in MDA-MB-231; format: cell-based; details: cancerous epithelial cells (MDA-MB-231)
Description: (§1) FIGS. 8A-8J present properties of AuPhos. FIG. 8A includes a chemical structure of AuPhos. FIG. 8B includes extrapolated AuPhos-induced OCR (complex I) in liver mitochondria. […] FIG. 8E provides weight change in AuPhos-treated mice over time. FIG. 8F presents stability of AuPhos in PBS and DMEM. FIG. 8G presents stability of AuPhos in PBS and DMEM. FIG. 8H includes an AuPhos-induced Heat map of DEG (left Panel), obtained using log 2(Fold Change) and p-Value <0.00001 thresholds in MDA-MB-231(107) cells (n=2), and the top six hits of KEGG analysis (right panel). FIG. 8I presents biodistribution and pharmacokinetics of AuPhos in different tissues; Colon, Small bowel, Lung, Kidney, Spleen, Liver, Heart and Blood after single dose (oral, 25 mg/kg) administration of AuPhos at 6 h, 12 h and 24 h. FIG. 8J presents biodistribution and pharmacokinetics of AuPhos in different tissues stool after single dose (oral, 25 mg/kg) administration of AuPhos at 6 h, 12 h and 24 h.
Changing the geometry and stabilizing ligands of gold compounds, such as the use of bidentate frameworks, promote different mitochondrial effects.

isolated IEC = experiment: Western blot of IEC proteins from control or DSS colitis mice gavaged with AuPhos; format: in vivo, mouse
Procedure: Control or DSS colitis mice were gavaged with vehicle (−) or AuPhos (+) (as in FIG. 2) and sacrificed on D14. WB of isolated IEC proteins indicated are shown in nuclear and membranous protein fractions along with densitometry. (#mice=4 for each condition). *p<0.04. FIG. 16E. Normal human colonic biopsies were incubated at 4° C. with AuPhos×3 hrs. Membranous and nuclear fractions examined for indicated proteins by WB.
Taking advantage of the unique electrochemical properties and excellent safety profile of gold in humans, a stable gold compound was designed to modulate mitochondrial processes including oxidative phosphorylation (OXPHOS). […] IEC (FIG. 16C). […] These examples illustrate that AuPhos has utility for “gut selective” IBD therapy.

serum IL-6 = experiment: Anti-CD3 mAb-induced serum IL-6 in control and AuPhos-treated mice; format: in vivo, mouse; details: 25 mg/kg i.g. every 3d x2; anti-CD3 mAb injected
Procedure: FIG. 12A RT-qPCR analysis of cytokines and chemokine genes in AuPhos vs. controls at 9 and 13 days after DSS initiation. FIG. 12B RT-qPCR analysis of cytokines and chemokine genes in AuPhos vs. controls at 9 and 13 days after DSS initiation. FIG. 12C Quantitative RT-PCR analysis of inflammasome markers in D13 DSS mice. Statistical significance was determined using multiple t-test with Holm-Sidak's multiple method. FIG. 12D Serum IL-6 in AuPhos treated (n=4) and control mice, with or without anti-CD3 antibody. ★<0.05; ★★<0.01.
Findings in FIG. 9A-9D indicate that AuPhos attenuates tissue inflammation and enhances mucosal healing in DSS colitis mice. To interrogate the effects of AuPhos on Th1 and Treg cytokine production as well as chemokine and inflammasome mediators, mRNA from mice at time points indicated (as in FIG. 9A-9D). […] To test the question of whether AuPhos affected leukocytes directly, control and AuPhos-treated (25 mg/kg i.g. dosed every 3d×2) were injected with anti-CD3 mAb (antiTCR mAb). It is known that CD3 mAb induces a cytokine storm in the periphery and intestine.

[2] = Biodistribution and pharmacokinetics of AuPhos in tissues and stool after single oral dose; format: in vivo, mouse; details: single oral 25 mg/kg dose
Description: as §1
FIGS. 16A-16E illustrate the pharmacokinetics and effects of AuPhos on mitochondrial bioenergetics. FIG. 16A. Biodistribution and pharmacokinetics of AuPhos in different tissues; Colon, Small bowel, Spleen, Liver after a single intragastric (i.g.) gavage (25 mg/kg) with measurements of AuPhos tissue levels (graphite furnace atomic absorption spectroscopy) at times indicated. FIG. 16B. […]

[3] = Stability of AuPhos in PBS and DMEM; format: physicochemical
Description: as §1
(§2) This observation was mitochondrial complex I-driven when different substrates, i.e. pyruvate and succinate, were used to measure the OCR. Transcriptomics was used to study global changes in mRNA in response to a 12 h exposure of AuPhos to MDA-MB-231 cells (FIG. 8H).

[4] = test system: mouse liver mitochondria (complex I); experiment: AuPhos-induced OCR in mouse liver mitochondria; format: biochemical; details: complex I-driven, substrates pyruvate and succinate
Description: as §1
OxPHOS will be then be stimulated by subsequent addition of ADP followed by additional CI substrate glutamate (5 mM). […] Residual non-mitochondrial oxygen consumption will be determined by addition of complex III inhibitor antimycin-A (1 ug/ml). Oxygen consumption rate (OCR) of isolated mitochondria will also be evaluated using Oxygraph-2K or high-throughput Seahorse XFe24 Extracellular Flux Analyzer (Agilent Technologies). […]

[5] = Toxicity (weight change) in AuPhos-treated mice over time; format: in vivo, mouse
Description: as §1, §2

colonic NCM460 cells = experiment: MitoSOX Red assay of mtROS (superoxide) production; format: cell-based, human
Procedure: FIG. 11A includes representative images showing AuPhos-induced (200 nM) mtROS (superoxide) production using MitoSOX Red assay.
Given the in vivo data in FIG. 10, it was determined if AuPhos increases ROS levels within mitochondria (mtROS). To examine this possibility, colonic NCM460 cells were cultured, treated with a positive control (Rotenone), AuPhos (200 nM) or AuPhos with PEG-SOD (negative control) and analyzed with MitoSOX Red (an indicator of mitochondrial superoxide). […] Studies in FIGS. 11C and 11D used human colonoids isolated from normal patients to examine effects of AuPhos on hydrogen peroxide (H2O2) production from normal and low-dose TNF-stimulated colonoids.

MDA-MB-231 cells = experiment: Transcriptomics of global mRNA changes after AuPhos exposure; format: cell-based; details: 12 h exposure
Description: as §1, §2

For `[Cl][Au]1([c]2ccccc2Cc2ccccn2)[P](c2ccccc2)(c2ccccc2)c2ccccc2[P]1(c1ccccc1)c1ccccc1` [AuPhos], the “mitochondrial localization (gold content)” value [1] was “localizes in the mitochondria”, the “Nrf2 and PGC1α levels in IEC” value (isolated IEC; WB) was “increased Nrf2 and PGC1α levels” and the “mitochondrial complex levels in IEC” value (isolated IEC; control and DSS colitis mice, sacrificed D14, WB) was “increases mitochondrial complex levels”. For the same compound, the “anti-CD3 induced increases in serum IL-6” value (serum IL-6) was “did not affect”, the “evacuation in the stool” value [2] was no more than 12 h and the tissue biodistribution [2] was “clear accumulation in the small and large bowel tissues”. For the same compound, the solution stability [3] was “excellent solution stability”, the “mitochondrial respiration (OCR)” value [4] was “directly and rapidly enhances mitochondrial respiration; also recorded: significant increase in mitochondrial respiration induced by AuPhos in a dose-dependent manner” and the liver toxicity ([5]; mice, data not shown) was “not observed”. For the same compound, the toxicity in mice ([5]; over 20 days) was “no toxicity”, the “AuPhos-induced mtROS production with PEG-SOD” value (colonic NCM460 cells; AuPhos 200 nM with PEG-SOD (negative control), NCM460) was “specifically inhibited with PEG-SOD” and the “rise in mtROS production” value (colonic NCM460 cells; AuPhos 200 nM, NCM460 cells, MitoSOX Red) was 45%. The “differentially expressed genes (mRNA)” value (MDA-MB-231 cells) was “mitochondrial OXPHOS genes: MT-ND1-5, MT-CYB, MT-CO1-3, and MTATP6 were modulated”.
